{
  "source": "patent US20250325558A1",
  "about": "“MODULATION OF BACE1 AS A THERAPY FOR SPINOCEREBELLAR ATAXIA” (The General Hospital Corporation, priority 2022, published 2025)",
  "origin": "cited, not measured here",
  "conditions": "preclinical and clinical studies",
  "data": [
    {"smiles": "CN1C(=N)N[C@](C)(c2cc(NC(=O)c3ccc(F)cn3)ccc2F)CS1(=O)=O", "note": "[MK-8931, verubecestat]", "values": [
      {"measurement": "serious adverse side effects such as liver toxicity", "result": "did not produce any serious adverse side effects such as liver toxicity"}
    ]}
  ]
}
